# Measured values reported in ChEMBL document CHEMBL4765429, “Discovery of methyl 3-((2-((1-(dimethylglycyl)-5-methoxyindolin-6-yl)amino)-5-(trifluoro-methyl) pyrimidin-4-yl)amino)thiophene-2-carboxylate as a potent and selective polo-like kinase 1 (PLK1) inhibitor for combating hepatocellular carcinoma” (Eur J Med Chem, 2020).
# What was measured:
# [1] = Metabolic stability in human liver microsomes assessed as clearance; assay type: ADME, Microsome; conditions: read-out: CLH
# [2] = AUC (0 to infinity) in ICR mouse at 5 mg/kg, iv; assay type: ADME, organism-based; parameters: route intravenous, time infinity, dose 5 mg/kg; conditions: in vivo
# [3] = Volume of distribution at steady state in ICR mouse at 5 mg/kg, iv; assay type: ADME, organism-based; conditions: in vivo, read-out: Vdss
# [4] = Metabolic stability in rat liver microsomes assessed as clearance; assay type: ADME, Microsome; conditions: read-out: CLH
# [5] = Metabolic stability in dog liver microsomes assessed as clearance; assay type: ADME, Canis lupus familiaris, Microsome; conditions: read-out: CLH
# [6] = Metabolic stability in monkey liver microsomes assessed as clearance; assay type: ADME, Macaca mulatta, Microsome; conditions: rhesus monkey, read-out: CLH
# [7] = Half life in ICR mouse at 5 mg/kg, iv; assay type: ADME, organism-based; conditions: in vivo
# [8] = Metabolic stability in mouse liver microsomes assessed as clearance; assay type: ADME, Microsome; conditions: read-out: CLH
compound,measurement,setting,value
COC(=O)c1sccc1Nc1nc(Nc2cc3c(cc2OC)CCN3C(=O)CN(C)C)ncc1C(F)(F)F,CLint scaled,[1],74.3 mL/min/kg
same,AUC(0-inf),[2],776 ng·h/mL
same,Vd,[3],5.21 L/kg
same,CLint scaled,[4],91.3 mL/min/kg
same,CLint scaled,[5],61.5 mL/min/kg
same,CLint scaled,[6],196 mL/min/kg
same,half-life,[7],88.2 min
same,CLint scaled,[8],331 mL/min/kg
